Data published in BindingDB's records for doi:10.1021/jm301186p (Universidad De Zaragoza, 2012).

Experiment: Inhibition of aggregation of human DHFR-fused amyloid beta (1 to 42) expressed in yeast harboring erg6delta assessed as increase in yeast viability measured up to 20 hrs in presence of MTX

Point of comparison: Nc1c(S(=O)(=O)c2ccc(Cl)cc2)cnc2cc(-c3ccccc3)nn12, IC50 2300 nM. Against it:
- O=S(=O)(Nc1ccc(N2CCCCC2)cc1)c1cc(Cl)sc1Cl — 3.3-fold lower, 700 nM
- O=C(Nc1ccccc1)Nc1ccc(Cl)cc1[N+](=O)[O-] — 2.6-fold lower, 900 nM
- Cc1nc2sc3c(c2c(=O)o1)CCCC3 — 1.9-fold lower, 1200 nM
